Test results as given in ChEMBL document CHEMBL5506024, “Multitarget μ-Opioid Receptor Agonists─Neuropeptide FF Receptor Antagonists Induce Potent Antinociception with Reduced Adverse Side Effects” (J Med Chem, 2024).
Activity calls are given as the source filed them. Numbered stars: 1 amine (or outer) side, 2 acyl side, 3 side chain; on linkers, the order of the positions; unused ones are H or OH. Square brackets hold non-standard residues; d marks the D form. Peptide text beside a SMILES is read from it. * marks the point of attachment. Nva(5-(4-Bn-piperidin-1-yl)) = N[C@@H](CCCN1CCC(Cc2ccccc2)CC1)C(=O)O; X2 = O=C1[C@@H](N[*:1])Cc2ccccc2CN1CCCC(=O)[*:2]; X1 = O=C1[C@@H](N[*:1])Cc2ccccc2CN1CCC(=O)[*:2]; Dmt = Cc1cc(O)cc(C)c1C[C@H](N)C(=O)O; Nicotinoyl = O=C(c1cccnc1)*; dOrn = NCCC[C@@H](N)C(=O)O; dNMeA = CN[C@H](C)C(=O)O

Experiments:
[1] = biological target: T1, Mu-type opioid receptor (Homo sapiens, UniProt P35372); experiment: Agonist activity at human MOP expressed in HEK293 cells coexpressing GloSensor-20F assessed as inhibition of forskolin-induced cAMP accumulation relative to control; type: functional, cell-based; settings: filed as agonist
T1 sequence (P35372 whole entry): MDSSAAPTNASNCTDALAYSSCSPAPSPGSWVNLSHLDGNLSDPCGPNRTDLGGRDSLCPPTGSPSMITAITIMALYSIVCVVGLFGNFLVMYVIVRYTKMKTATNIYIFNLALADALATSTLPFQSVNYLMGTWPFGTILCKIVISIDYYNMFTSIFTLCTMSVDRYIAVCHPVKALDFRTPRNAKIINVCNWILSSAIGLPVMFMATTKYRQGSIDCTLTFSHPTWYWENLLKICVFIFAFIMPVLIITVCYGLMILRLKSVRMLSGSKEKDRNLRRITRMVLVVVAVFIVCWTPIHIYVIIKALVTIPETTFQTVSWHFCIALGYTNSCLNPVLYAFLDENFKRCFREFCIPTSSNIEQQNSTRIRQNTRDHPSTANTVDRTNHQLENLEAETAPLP

[2] = biological target: T2, Neuropeptide FF receptor 1 (Homo sapiens, UniProt Q9GZQ6); experiment: Antagonist activity at human NPFFR1 expressed in CHO cell membrane assessed as inhibition of NPVF induced cAMP response at 5 uM incubated for 1 hr by Topcount counting method relative to control; type: functional, cell membranes; parameters: scale not given: the % may be the effect or the level left
T2 sequence (Q9GZQ6 whole entry): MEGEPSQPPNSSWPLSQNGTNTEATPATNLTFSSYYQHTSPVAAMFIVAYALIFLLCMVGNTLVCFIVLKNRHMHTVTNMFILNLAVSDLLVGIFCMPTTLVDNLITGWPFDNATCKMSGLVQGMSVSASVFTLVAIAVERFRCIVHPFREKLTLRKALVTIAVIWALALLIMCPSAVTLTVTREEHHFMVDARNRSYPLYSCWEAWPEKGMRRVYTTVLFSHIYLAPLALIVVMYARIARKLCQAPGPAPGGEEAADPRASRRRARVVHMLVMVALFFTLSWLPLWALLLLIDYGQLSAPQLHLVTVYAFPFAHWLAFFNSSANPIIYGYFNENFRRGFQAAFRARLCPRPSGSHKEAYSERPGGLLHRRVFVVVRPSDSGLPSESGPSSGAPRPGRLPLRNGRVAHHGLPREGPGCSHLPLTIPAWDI

[3] = biological target: T1, Mu-type opioid receptor; experiment: Agonist activity at human Rluc8-tagged MOP expressed in HEK293 cells coexpressing eYFP-tagged beta-arrestin-2 assessed as beta-arrestin-2 recruitment incubated for 5 mins by luminometer analysis; type: functional, cell-based
[4] = biological target: T3, Neuropeptide FF receptor 2 (Homo sapiens, UniProt Q9Y5X5); experiment: Displacement of [125I]-1DMeNPFF from human NPFFR2 expressed in CHO cell membrane at 0.05 uM incubated for 1 hr by Topcount counting method relative to control; type: cell membranes; settings: filed as antagonist
T3 sequence (Q9Y5X5 whole entry): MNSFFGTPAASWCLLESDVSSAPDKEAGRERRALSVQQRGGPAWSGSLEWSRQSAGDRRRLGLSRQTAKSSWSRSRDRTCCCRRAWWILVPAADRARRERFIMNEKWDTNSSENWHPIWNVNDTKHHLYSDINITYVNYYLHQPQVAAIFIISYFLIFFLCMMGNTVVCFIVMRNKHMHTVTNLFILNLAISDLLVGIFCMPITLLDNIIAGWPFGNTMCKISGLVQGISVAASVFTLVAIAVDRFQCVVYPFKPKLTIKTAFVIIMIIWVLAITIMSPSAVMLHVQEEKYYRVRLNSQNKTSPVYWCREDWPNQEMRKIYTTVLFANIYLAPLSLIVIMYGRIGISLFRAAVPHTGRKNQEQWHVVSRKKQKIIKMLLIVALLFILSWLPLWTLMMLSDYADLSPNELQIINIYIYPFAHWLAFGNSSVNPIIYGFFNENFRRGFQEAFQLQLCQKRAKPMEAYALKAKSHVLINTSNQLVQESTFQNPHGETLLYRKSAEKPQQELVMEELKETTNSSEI

[5] = biological target: T3, Neuropeptide FF receptor 2; experiment: Antagonist activity at human NPFFR2 expressed in CHO cell membrane assessed as inhibition of NPVF induced cAMP response at 5 uM incubated for 1 hr by Topcount counting method relative to control; type: functional, cell membranes; parameters: scale not given: the % may be the effect or the level left
[6] = biological target: T1, Mu-type opioid receptor; experiment: Agonist activity at human MOP expressed in HEK293 cells coexpressing GloSensor-20F assessed as inhibition of forskolin-induced cAMP accumulation; type: functional, cell-based
[7] = biological target: T2, Neuropeptide FF receptor 1; experiment: Displacement of [125I]-1DMeNPFF from human NPFFR1 expressed in CHO cell membrane at 0.5 uM incubated for 1 hr by Topcount counting method relative to control; type: cell membranes
[8] = biological target: T1, Mu-type opioid receptor; experiment: Agonist activity at human Rluc8-tagged MOP expressed in HEK293 cells coexpressing eYFP-tagged beta-arrestin-2 assessed as beta-arrestin-2 recruitment incubated for 5 mins by luminometer analysis relative to control; type: functional, cell-based
[9] = Induction of naltrexone-precipitated withdrawal syndrome in sc dosed C57BL/6N mouse assessed as vegetative signs administered for 8 days followed by naltrexone addition on day 9 after 2 hrs post last dose and measured after 30 mins; type: toxicity, organism-based; settings: in vivo, 216.5 h, time 12990 min
[10] = test system: Mus musculus; experiment: Antinociceptive activity in mouse at 10 mg/kg, sc administered daily and measured on day 8; type: functional, organism-based
[11] = test system: Mus musculus; experiment: Antinociceptive activity in mouse assessed as basal nociceptive threshold at 10 mg/kg, sc administered daily and measured on day 2 to 7; type: functional, organism-based
[12] = Toxicity in sc dosed C57BL/6N mouse assessed as induction of respiratory depression by measuring decrease in pulmonary rate by plethysmography; type: organism-based; settings: in vivo
[13] = Induction of naltrexone-precipitated withdrawal syndrome in sc dosed C57BL/6N mouse assessed as somatic signs administered for 8 days followed by naltrexone addition on day 9 after 2 hrs post last dose and measured after 30 mins; type: toxicity, organism-based; settings: in vivo, 216.5 h, time 12990 min
[14] = test system: Mus musculus; experiment: Antinociceptive activity in mouse at 4.2 umol/kg, sc administered daily and measured on day 1 and 8; type: functional, organism-based; settings: dose 4.2 µmol/kg
[15] = biological target: Kappa-type opioid receptor (Homo sapiens, UniProt P41145); experiment: Antagonist activity at human KOR expressed in HEK293 cells assessed as forskolin-induced cAMP accumulation in presence of IBMX; type: functional, cell-based; settings: filed as antagonist
Chain of Kappa-type opioid receptor (P41145 whole entry): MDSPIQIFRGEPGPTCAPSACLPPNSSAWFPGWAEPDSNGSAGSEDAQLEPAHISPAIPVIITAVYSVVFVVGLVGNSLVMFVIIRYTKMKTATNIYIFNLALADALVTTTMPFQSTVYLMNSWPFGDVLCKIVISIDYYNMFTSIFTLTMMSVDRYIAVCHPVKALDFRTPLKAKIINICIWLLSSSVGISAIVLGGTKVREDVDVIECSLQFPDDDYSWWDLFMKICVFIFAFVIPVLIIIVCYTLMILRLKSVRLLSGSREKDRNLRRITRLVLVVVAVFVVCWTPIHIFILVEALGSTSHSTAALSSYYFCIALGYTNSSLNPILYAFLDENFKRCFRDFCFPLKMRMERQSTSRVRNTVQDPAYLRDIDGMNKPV

[16] = Cmax in mouse at 10 mg/kg, sc measured upto 24 hrs by LC-MS/MS analysis; type: ADME, organism-based; settings: in vivo
[17] = Tmax in mouse at 10 mg/kg, sc measured upto 24 hrs by LC-MS/MS analysis; type: ADME, organism-based; settings: in vivo
[18] = biological target: Nociceptin receptor (Homo sapiens) (UniProt P41146); experiment: Antagonist activity at human NOR expressed in HEK293 cells assessed as forskolin-induced cAMP accumulation in presence of IBMX; type: functional, cell-based; settings: filed as antagonist
Chain of Nociceptin receptor (Homo sapiens) (P41146 whole entry): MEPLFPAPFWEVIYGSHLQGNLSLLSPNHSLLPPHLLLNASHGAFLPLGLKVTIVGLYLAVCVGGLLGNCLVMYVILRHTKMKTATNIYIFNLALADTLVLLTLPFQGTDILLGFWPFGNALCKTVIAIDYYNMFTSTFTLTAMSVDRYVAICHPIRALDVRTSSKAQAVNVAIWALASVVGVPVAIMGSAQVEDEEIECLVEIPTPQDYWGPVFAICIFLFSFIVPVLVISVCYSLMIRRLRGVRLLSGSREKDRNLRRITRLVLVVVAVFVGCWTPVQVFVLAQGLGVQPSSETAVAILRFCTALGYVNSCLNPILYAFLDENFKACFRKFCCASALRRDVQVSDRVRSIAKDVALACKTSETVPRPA

[19] = Induction of naltrexone-precipitated withdrawal syndrome in sc dosed C57BL/6N mouse assessed as paw tremor administered for 8 days followed by naltrexone addition on day 9 after 2 hrs post last dose and measured after 30 mins; type: toxicity, organism-based; settings: in vivo, 216.5 h, time 12990 min
[20] = test system: Mus musculus; experiment: Antinociceptive activity in mouse at 4.2 umol/kg, sc administered chronically and measured on day 8; type: functional, organism-based; settings: dose 4.2 µmol/kg
[21] = Induction of naltrexone-precipitated withdrawal syndrome in sc dosed C57BL/6N mouse assessed as wet dog shake counts administered for 8 days followed by naltrexone addition on day 9 after 2 hrs post last dose and measured after 30 mins; type: toxicity, organism-based; settings: in vivo, 216.5 h, time 12990 min
[22] = Drug concentration in mouse plasma at 10 mg/kg, sc measured after 2 hrs by LC-MS/MS analysis; type: ADME, organism-based
[23] = test system: Mus musculus; experiment: Antinociceptive activity in mouse at 4.2 umol/kg, sc administered chronically and measured on day 1; type: functional, organism-based; settings: dose 4.2 µmol/kg
[24] = Half life in mouse at 10 mg/kg, sc measured upto 24 hrs by LC-MS/MS analysis; type: ADME, organism-based; settings: in vivo

## Cc1cc(O)cc(C)c1C[C@H](N)C(=O)N(C)[C@H](C)C(=O)N[C@H]1Cc2ccccc2CN(CCCC(=O)N[C@@H](CCCN2CCC(Cc3ccccc3)CC2)C(=O)N[C@@H](Cc2ccccc2)C(N)=O)C1=O (H-[Dmt][dNMeA][X2][Nva(5-(4-Bn-piperidin-1-yl))]F-NH2)
[1]
  Emax: 66%
[2]
  Activity: 12%
[3]; hek293
  EC50: Not Active
[4]
  Activity: 65%
[5]; filed as antagonist
  Activity: 49%
[6]
  EC50: 10.6 nM
[7]; filed as antagonist
  Activity: 57%

## Cc1cc(O)cc(C)c1C[C@H](N)C(=O)N[C@H](CCCCNC(=O)c1cccnc1)C(=O)N[C@H]1Cc2ccccc2CN(CCC(=O)N[C@@H](CCCN2CCC(Cc3ccccc3)CC2)C(=O)N[C@@H](Cc2ccccc2)C(N)=O)C1=O (H-[Dmt][dK](Nicotinoyl)[X1][Nva(5-(4-Bn-piperidin-1-yl))]F-NH2)
[1]
  Emax: 92%
[2]
  Activity: 33%
[3]; read-out: EC50
  EC50: 12 nM
[4]
  Activity: 70%
[5]; filed as antagonist
  Activity: 59%
[7]; filed as antagonist
  Activity: 74%
[8]
  Emax: 16%

## COc1ccsc1CNCC[C@@]1(c2ccccn2)CCOC2(CCCC2)C1 [OLICERIDINE]
[9]
  Activity: Toxic
[10]
  Activity: inactive
[11]
  Activity: inactive
[12]
  Activity: Dose-Dependent Effect
[13]
  Activity: Toxic

## Cc1cc(O)cc(C)c1C[C@H](N)C(=O)N[C@H](CCCNC(=N)N)C(=O)N[C@H]1Cc2ccccc2CN(CCC(=O)N[C@@H](CCCN2CCC(Cc3ccccc3)CC2)C(=O)N[C@@H](Cc2ccccc2)C(N)=O)C1=O
[14]
  Activity: Active
[15]
  Activity: Active
[1]
  Emax: 91%
[16]
  Cmax: 984 nM
[17]
  Tmax: 2.67 h
[2]; filed as antagonist
  Activity: 62%
[3]; read-out: EC50
  EC50: 125 nM
[18]
  Activity: Active
[4]
  Activity: 83%
[5]; filed as antagonist
  Activity: 54%
[19]
  Activity: Non-Toxic
[6]
  EC50: 9.3 nM
[20]
  Activity: inactive
[21]
  Activity: Non-Toxic
[22]
  concentration at 2 h: 937 nM
[7]; filed as antagonist
  Activity: 80%
[23]
  Activity: Active
[24]
  half-life: 3.08 h
[8]; filed as agonist
  Emax: 42%

## Cc1cc(O)cc(C)c1C[C@H](N)C(=O)N[C@H](CCCNC(=N)N)C(=O)N[C@H]1Cc2c(ccc3ccccc23)CN(CC(=O)N[C@@H](CCCN2CCC(Cc3ccccc3)CC2)C(=O)N[C@@H](Cc2c[nH]c3ccccc23)C(N)=O)C1=O
[1]
  Emax: 65%
[2]; filed as antagonist
  Activity: 62%
[3]; hek293
  EC50: Not Active
[4]
  Activity: 84%
[5]; filed as antagonist
  Activity: 83%
[6]
  EC50: 10.5 nM
[7]; filed as antagonist
  Activity: 68%

## Cc1cc(O)cc(C)c1C[C@H](N)C(=O)N[C@H](CCCN)C(=O)N[C@H]1Cc2ccccc2CN(CCC(=O)N[C@@H](CCCN2CCC(Cc3ccccc3)CC2)C(=O)N[C@@H](Cc2ccccc2)C(N)=O)C1=O (H-[Dmt][dOrn][X1][Nva(5-(4-Bn-piperidin-1-yl))]F-NH2)
[1]
  Emax: 78%
[2]
  Activity: 22%
[3]; read-out: EC50
  EC50: 2350 nM
[4]
  Activity: 55%
[5]
  Activity: 37%
[6]
  EC50: 34 nM
[7]; filed as antagonist
  Activity: 45%
[8]
  Emax: 20%

## Cc1cc(O)cc(C)c1C[C@H](N)C(=O)N(C)[C@H](C)C(=O)N[C@H]1Cc2ccccc2CN(CCC(=O)N[C@@H](CCCN2CCC(Cc3ccccc3)CC2)C(=O)N[C@@H](Cc2ccccc2)C(N)=O)C1=O (H-[Dmt][dNMeA][X1][Nva(5-(4-Bn-piperidin-1-yl))]F-NH2)
[1]
  Emax: 64%
[2]; filed as antagonist
  Activity: 75%
[4]
  Activity: 48%
[5]; filed as antagonist
  Activity: 45%
[7]; filed as antagonist
  Activity: 43%
[8]
  Emax: 12%

## Cc1cc(O)cc(C)c1C[C@H](N)C(=O)N[C@H](CCCNC(=N)N)C(=O)N[C@H]1Cc2c(ccc3ccccc23)CN(CC(=O)N[C@@H](CCCN2CCC(Cc3ccccc3)CC2)C(=O)N[C@@H](Cc2ccccc2)C(N)=O)C1=O
[1]
  Emax: 90%
[2]
  Activity: 22%
[4]
  Activity: 96%
[5]; filed as antagonist
  Activity: 91%
[7]
  Activity: 35%
[8]
  Emax: 22%

## Cc1cc(O)cc(C)c1C[C@H](N)C(=O)N[C@H](CCCNC(=N)N)C(=O)N[C@H]1Cc2c(ccc3ccccc23)CN(CC(=O)N[C@@H](CCCN2CCC(Cc3ccccc3)CC2)C(=O)N[C@H](C(N)=O)C(C)C)C1=O
[1]
  Emax: 102%
[2]; filed as antagonist
  Activity: 51%
[4]
  Activity: 77%
[5]; filed as antagonist
  Activity: 77%
[7]; filed as antagonist
  Activity: 87%
[8]
  Emax: 22%
